Entries after “also recorded” stand apart in the source; their conditions may differ. Where two headings read alike, the source gives them in different places.
Tests used:
α4β2* nAChR = details: Figure 1, cited from earlier work
α7* nAChR = details: Figure 1, cited from earlier work
α3β4* nAChR = target: α3β4* nAChR; parameters: method as in Mineur et al. ([2009]); details: Figure 1; ref Mineur et al. ([2009]); cited from earlier work
LS and HS α4β2-nAChR = tested on: LS and HS α4β2-nAChR; parameters: method as in Mineur et al. [2009]; details: relative to that of ACh; ref Mineur et al. [2009]; cited from earlier work
C57BL/6J mice = details: ref Mineur et al. [2009], cited from earlier work; for latency to eat in NSF: 14 days repeat treatment, C57BL/6J mice, [2011]
Male C57 BL6 mice = test: SmartCube test; type: in vivo, mouse; details: for SmartCube behavioral signature: both tested doses, 15 min preinjection
Method: Male C57 BL6 mice (Taconic Farms) were used in the SmartCube® assay (PsychoGenics Inc., Tarrytown, NY). Mice were received at 7 weeks old and group-housed in OptiMICE ventilated cages with four mice/cage. Mice were acclimated to the colony room for at least 1 week prior to the first injections. All animals were tested in SmartCube® at 8 10 weeks old.
To acquire initial in vivo evaluation of our nicotinic ligands for behavioral effects relevant to psychiatric diseases, we used SmartCube®, an automated system in which mouse behavior is captured by digital video using novel, proprietary hardware that presents multiple challenges in a single test session and is analyzed with computer algorithms. Digital videos of the subjects are processed with computer vision algorithms to extract more than 1400 dependent measures including frequency and duration of behavioral states such as grooming, rearing, etc., and many other features obtained during the test session. Using machine learning techniques chosen to best separate pharmacological effects of reference compounds, the behavioral signatures of the mutant mice are then assessed quantitatively.
The most dominant of the features collected that define the drug class signature are identified and ranked using complex proprietary bioinformatics algorithms. The outcome of a SmartCube® run is a set of more than 1400 features (behavioral parameters) that can be used for various analyses. Many of these features are correlated (e.g., rearing counts and supported rearing counts). Therefore, we form statistically independent combinations of the original features (further referred to as decorrelated features) that discriminate between the groups more effectively. Next, we apply a proprietary feature ranking algorithm to score each feature discrimination power to weight each feature change by its relevance. The data obtained in this way are used to define drug signatures for known reference compounds and to establish therapeutic class signatures against which a test sample can be compared. The neuropharmacological effects of a test compound can be predicted by similarity to major classes of compounds, such as antipsychotics, anxiolytics, and antidepressants (Roberds et al. [2011]).
Mice are taken in their home cage to the SmartCube® suite of experimental rooms where they remain until they are placed in the apparatus for a single testing session. A standard SmartCube® protocol runs for a single session (∼45 min). After the session mice are group-housed again and brought back to the colony room. Any abnormal behavior is noted. […] At least 12 mice were used in each treatment group.

α3β4 nAChR = details: Figure 1, cited from earlier work
α4β2 nAChR = details: Figure 1, cited from earlier work
mice = details: ref Mineur et al. [2009]; cited from earlier work
human α3β4*-nAChR = target: T1, human α3β4*-nAChR (Homo sapiens, UniProt P30926+P32297); test: 86Rb+ ion efflux assay, SH-SY5Y cells; type: cell-based; details: 86Rb+ efflux
T1 construct: SH-SY5Y naturally expresses autonomic α3β4*-nAChRs; endogenous in cells; host or cells: SH-SY5Y human neuroblastoma cells
T1 sequence (P32297 32-505): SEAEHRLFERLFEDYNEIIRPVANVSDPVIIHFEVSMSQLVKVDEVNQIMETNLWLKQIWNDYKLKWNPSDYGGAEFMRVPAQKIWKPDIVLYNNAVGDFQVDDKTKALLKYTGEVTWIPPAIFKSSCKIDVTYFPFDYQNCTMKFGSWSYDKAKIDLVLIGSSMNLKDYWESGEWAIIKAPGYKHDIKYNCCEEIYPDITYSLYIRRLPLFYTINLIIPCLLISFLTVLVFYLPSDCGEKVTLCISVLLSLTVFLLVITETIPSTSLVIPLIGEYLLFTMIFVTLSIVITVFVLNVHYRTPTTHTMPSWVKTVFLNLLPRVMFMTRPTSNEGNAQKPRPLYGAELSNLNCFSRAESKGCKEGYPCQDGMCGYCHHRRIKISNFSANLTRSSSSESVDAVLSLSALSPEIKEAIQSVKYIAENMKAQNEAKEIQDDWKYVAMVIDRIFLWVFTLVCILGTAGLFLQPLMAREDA
T1 sequence (P30926 22-498): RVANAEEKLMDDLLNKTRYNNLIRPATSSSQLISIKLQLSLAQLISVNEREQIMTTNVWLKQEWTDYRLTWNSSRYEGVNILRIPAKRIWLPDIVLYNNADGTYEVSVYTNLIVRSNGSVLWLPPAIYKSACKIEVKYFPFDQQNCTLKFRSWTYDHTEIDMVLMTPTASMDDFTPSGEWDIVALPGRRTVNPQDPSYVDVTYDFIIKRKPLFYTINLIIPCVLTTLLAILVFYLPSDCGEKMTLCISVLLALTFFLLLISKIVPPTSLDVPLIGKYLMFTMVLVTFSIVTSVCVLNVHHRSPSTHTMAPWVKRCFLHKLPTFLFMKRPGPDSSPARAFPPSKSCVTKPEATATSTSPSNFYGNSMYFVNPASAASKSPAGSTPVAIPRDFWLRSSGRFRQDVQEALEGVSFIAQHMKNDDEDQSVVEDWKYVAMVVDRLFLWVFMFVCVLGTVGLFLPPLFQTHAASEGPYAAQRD
Excerpt: (§1) Cell lines naturally or heterologously expressing specific, functional, human nAChR subtypes were used. The human clonal cell line TE671/RD naturally expresses human muscle-type α1*-nAChRs, containing α1, β1, γ, and δ subunits, with function detectable using ^86Rb^+ efflux assays. […] These cells heterologously express human nAChR chimeric (α6/3) subunits (wherein the extracellular, N-terminal, ligand-binding domain of the human nAChR α6 subunit replaces that domain in the nAChR α3 subunit) along with human β2 and β3 subunits. […] Cells were passaged once a week by splitting just-confluent cultures 1/300 (TE671/RD), 1/10 (SH-SY5Y), or 1/40 (transfected SH-EP1) in serum-supplemented medium to maintain log-phase growth.
(§2) One newer modification on these techniques involves low temperature incubation before assays to increase the surface expression of high sensitivity (HS) relative to low sensitivity (LS) α4β2 nAChRs and to enhance surface expression of (α6/3)β2β3-nAChRs. […] In brief, this allows us to determine efficacies of test compounds at LS and HS α4β2 nAChRs, respectively, as the ordinate values of the linear regressions at abscissa values of 0% and 100% of sazetidine-A efficacy.
(§3) Results are normalized to responses to a fully efficacious concentration of carbamylcholine (see Materials and Methods for details). […]

[1] = tested on: BALB/cJ and C57BL/6J mice; details: 28 days oral administration; ref Vieyra-Reyes et al. [2008]; cited from earlier work
[2] = tested on: male 129SvJ;C57BL/6J F1 hybrid mice; parameters: method as in Turner et al. ([2010]); details: chronic treatment; ref Turner et al. ([2010]); cited from earlier work
human α4β2-nAChR = target: T2, human α4β2-nAChR (Homo sapiens, UniProt P17787+P43681); test: 86Rb+ ion efflux assay, SH-EP1-hα4β2 cells; type: cell-based; details: normalized to a full antagonist
T2 construct: expressed in transfected cells; host or cells: SH-EP1 human epithelial cells (SH-EP1-hα4β2)
T2 sequence (P43681 29-627 limits assumed): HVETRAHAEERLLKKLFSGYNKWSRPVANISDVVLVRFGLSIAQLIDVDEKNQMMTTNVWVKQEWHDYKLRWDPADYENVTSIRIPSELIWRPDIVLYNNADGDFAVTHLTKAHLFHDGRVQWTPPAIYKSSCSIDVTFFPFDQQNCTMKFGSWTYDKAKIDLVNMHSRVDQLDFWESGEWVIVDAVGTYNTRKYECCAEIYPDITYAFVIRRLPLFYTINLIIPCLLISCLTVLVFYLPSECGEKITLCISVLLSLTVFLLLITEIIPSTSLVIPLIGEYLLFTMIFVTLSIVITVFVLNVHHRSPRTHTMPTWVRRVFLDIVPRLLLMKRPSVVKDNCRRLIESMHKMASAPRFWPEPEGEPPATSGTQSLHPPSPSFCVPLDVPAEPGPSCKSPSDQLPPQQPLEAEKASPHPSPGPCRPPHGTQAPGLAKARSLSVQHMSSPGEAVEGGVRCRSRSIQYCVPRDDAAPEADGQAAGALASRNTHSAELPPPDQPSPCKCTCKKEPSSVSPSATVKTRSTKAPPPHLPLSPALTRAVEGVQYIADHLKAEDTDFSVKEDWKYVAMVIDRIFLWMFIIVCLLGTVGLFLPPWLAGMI
T2 sequence (P17787 26-502): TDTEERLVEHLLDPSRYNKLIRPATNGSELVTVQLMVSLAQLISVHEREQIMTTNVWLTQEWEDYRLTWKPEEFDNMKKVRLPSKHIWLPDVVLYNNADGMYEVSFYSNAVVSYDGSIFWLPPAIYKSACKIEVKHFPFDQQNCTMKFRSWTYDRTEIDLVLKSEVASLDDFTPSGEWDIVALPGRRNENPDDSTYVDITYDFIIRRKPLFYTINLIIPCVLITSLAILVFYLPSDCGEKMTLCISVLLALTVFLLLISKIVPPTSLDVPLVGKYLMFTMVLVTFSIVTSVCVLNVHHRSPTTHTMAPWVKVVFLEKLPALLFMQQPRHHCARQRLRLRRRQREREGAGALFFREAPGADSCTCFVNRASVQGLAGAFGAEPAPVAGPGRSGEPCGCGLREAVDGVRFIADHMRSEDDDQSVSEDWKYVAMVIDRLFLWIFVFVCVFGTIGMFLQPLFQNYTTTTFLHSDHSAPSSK
Excerpt: as §1, §2, §3

[3] = target: T3, HS (high sensitivity) α4β2-nAChRs (Homo sapiens, UniProt P17787+P43681); test: 86Rb+ ion efflux assay, HS α4β2 efficacy by regression on sazetidine-A efficacy; type: cell-based; details: relative to carbamylcholine
T3 construct: expressed in transfected cells; host or cells: SH-EP1 human epithelial cells (SH-EP1-hα4β2)
T3 sequence (P43681 29-627 limits assumed): as the sequence (P43681 29-627 limits assumed) above
T3 sequence (P17787 26-502): as the sequence (P17787 26-502) above
Excerpt: as §1, §2, §3

[4] = target: T4, LS (low sensitivity) α4β2-nAChRs (Homo sapiens, UniProt P17787+P43681); test: 86Rb+ ion efflux assay, LS α4β2 efficacy by regression on sazetidine-A efficacy; type: cell-based; details: relative to carbamylcholine
T4 construct: expressed in transfected cells; host or cells: SH-EP1 human epithelial cells (SH-EP1-hα4β2)
T4 sequence (P43681 29-627 limits assumed): as the sequence (P43681 29-627 limits assumed) above
T4 sequence (P17787 26-502): as the sequence (P17787 26-502) above
Excerpt: as §1, §2, §3

human (α6/3)β2β3-nAChR = target: T5, human (α6/3)β2β3-nAChR (Homo sapiens, UniProt P17787+P32297+Q15825); test: 86Rb+ ion efflux assay, SH-EP1-h(α6/3)β2β3 cells; type: cell-based
T5 construct: expressed in transfected cells; host or cells: SH-EP1 human epithelial cells (SH-EP1-h(α6/3)β2β3)
T5 sequence (Q15825+P32297 fused with the stated changes): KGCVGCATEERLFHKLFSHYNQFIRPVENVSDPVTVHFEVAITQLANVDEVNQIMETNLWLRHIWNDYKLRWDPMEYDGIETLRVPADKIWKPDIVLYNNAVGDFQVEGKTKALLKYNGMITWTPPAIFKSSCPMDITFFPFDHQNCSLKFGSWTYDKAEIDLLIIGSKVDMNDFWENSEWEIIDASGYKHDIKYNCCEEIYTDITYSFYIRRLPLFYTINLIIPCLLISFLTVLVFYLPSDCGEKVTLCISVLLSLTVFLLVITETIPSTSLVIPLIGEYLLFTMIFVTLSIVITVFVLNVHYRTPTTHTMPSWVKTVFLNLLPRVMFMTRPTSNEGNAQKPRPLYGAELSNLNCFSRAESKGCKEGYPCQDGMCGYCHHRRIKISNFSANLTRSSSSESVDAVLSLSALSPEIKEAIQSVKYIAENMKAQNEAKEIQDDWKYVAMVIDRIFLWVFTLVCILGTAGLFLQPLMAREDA
T5 sequence (P17787 26-502): as the sequence (P17787 26-502) above
T5 sequence (Q05901 25-458 partner limits assumed): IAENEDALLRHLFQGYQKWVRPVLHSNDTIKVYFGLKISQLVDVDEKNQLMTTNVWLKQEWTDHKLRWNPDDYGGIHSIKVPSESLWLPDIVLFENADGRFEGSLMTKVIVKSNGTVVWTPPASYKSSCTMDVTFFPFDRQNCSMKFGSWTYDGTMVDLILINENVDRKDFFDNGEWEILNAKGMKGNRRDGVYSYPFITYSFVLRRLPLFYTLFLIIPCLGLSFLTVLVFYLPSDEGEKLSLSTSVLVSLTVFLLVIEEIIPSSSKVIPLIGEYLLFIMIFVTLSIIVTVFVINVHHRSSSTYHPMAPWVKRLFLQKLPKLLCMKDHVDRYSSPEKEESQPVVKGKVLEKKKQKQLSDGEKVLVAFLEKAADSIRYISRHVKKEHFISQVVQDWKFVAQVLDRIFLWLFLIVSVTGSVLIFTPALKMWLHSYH
Excerpt: as §1, §2
Results are normalized to responses to a fully efficacious concentration of carbamylcholine (see Materials and Methods for details). […] The ordinate intercepts of the linear regressions at a sazetidine-A efficacy (abscissa) of 0% represent the efficacies at LS α4β2-nAChRs, while the ordinate intercepts at a sazetidine-A efficacy of 100% represent the efficacies at HS α4β2-nAChRs.

α4β4 nAChR = details: ref Rollema et al. [2010]; cited from earlier work
α7 nAChR = details: ref Rollema et al. [2010]; read-out: Ki α7; cited from earlier work
α4β2*-nAChR = tested on: α4β2*-nAChR; parameters: method as in Weber et al. [2013]; details: estimate at free concentration in brain; ref Weber et al. [2013]; cited from earlier work

## O=c1c(-c2ccccn2)ccc2n1CC1CNCC2C1 (stereo not shown) [3-(2-pyridyl)cytisine]
α4β2* nAChR; ref Mineur et al. ([2009])
  Ki: 0.91 nM
α7* nAChR; ref Mineur et al. ([2009])
  Ki: 1100 nM
α3β4* nAChR
  Ki: 119 nM
LS and HS α4β2-nAChR
  intrinsic efficacy at both LS and HS receptors: no more than 10%
C57BL/6J mice
  latency to eat in NSF: decreased the latency to eat
C57BL/6J mice; lower dose only (0.3 vs. 0.6 mg/kg)
  dose found effective in the NSF test: 0.3 mg/kg

## O=c1cccc2n1C[C@@H]1CNC[C@H]2C1 [(-)-cytisine]
Male C57 BL6 mice; 1.0 mg/kg, i.p.
  SmartCube antidepressant (green) component: potential antidepressive-like behavior; also recorded: most pronounced
Male C57 BL6 mice; 0.5 and 1.0 mg/kg, i.p.
  SmartCube side effects: Minimal side effects; also recorded: no obvious side effects
Male C57 BL6 mice; i.p.
  SmartCube behavioral signature: robust CNS drug-like signatures
α3β4 nAChR; ref Rollema et al. ([2010])
  Ki: 480 nM
α4β2 nAChR; ref Rollema et al. ([2010])
  Ki: 2 nM
α7* nAChR; ref Rollema et al. ([2010])
  Ki: 5890 nM
LS and HS α4β2-nAChR
  intrinsic efficacy at both LS and HS receptors: no more than 10%
C57BL/6J mice
  latency to eat in NSF: decreased the latency to eat
mice
  dose not tolerated by mice: > 1.5 mg/kg

## FC(F)(F)c1ccc2c(c1)[C@H]1CNC[C@@H]2C1 [CP-601927]
α3β4 nAChR; ref Mineur et al. ([2011])
  Ki: 102 nM
α4β2 nAChR; ref Mineur et al. ([2011])
  Ki: 1.2 nM
C57BL/6J mice
  latency to eat in NSF: increased the latency to eat

## CN1CCC[C@H]1c1cccnc1 [Nicotine]
Human α3β4*-nAChR
  Agonism α3β4*-nAChR Efficacy: 90%
[1]
  behavioral changes in NSF: failed to show significant behavioral changes

## OCCCCC#Cc1cncc(OC[C@@H]2CCN2)c1 [Sazetidine-A]
α3β4 nAChR; ref Xiao et al. ([2006])
  Ki: 10000 nM
α4β2 nAChR; ref Xiao et al. ([2006])
  Ki: 0.4 nM
α4β2* nAChR; ref Xiao et al. ([2006])
  Ki: 0.9 nM
[2]
  time needed to approach food, NIH paradigm: decreased the time needed to approach food

## c1cnc2cc3c(cc2n1)[C@@H]1CNC[C@H]3C1 [Varenicline]
Human α4β2-nAChR
  Inactivation α4β2-nAChR Efficacy: 79 ± 3.3%
[3]
  Agonism α4β2-nAChR HS Efficacy: 105 ± 4.4%
[4]
  Agonism α4β2-nAChR LS Efficacy: 34 ± 2.8%
Human (α6/3)β2β3-nAChR; 86Rb+ efflux, read-out: Agonism (α6/3)β2β3-nAChR pEC50 (converted)
  EC50: 17.8 nM
Human (α6/3)β2β3-nAChR; normalized to a full agonist
  Agonism (α6/3)β2β3-nAChR Efficacy: 17 ± 0.5
Human (α6/3)β2β3-nAChR; normalized to a full antagonist
  Inactivation (α6/3)β2β3-nAChR Efficacy: 74 ± 2.6%
Human α3β4*-nAChR
  Agonism α3β4*-nAChR Efficacy: 110%
Male C57 BL6 mice; 1 mg/kg
  SmartCube antidepressant effects: weak antidepressant effects
Male C57 BL6 mice; 1.0 mg/kg, i.p.
  SmartCube side effects: Minimal side effects
Male C57 BL6 mice; 3.0 mg/kg, i.p.
  SmartCube side effect component, probability: about 30%
Male C57 BL6 mice; i.p.
  SmartCube behavioral signature: robust CNS drug-like signatures
α4β4 nAChR
  Ki: 110 nM
α7 nAChR
  Ki: 125 nM
C57BL/6J mice
  latency to eat in NSF: did not show any effect
[2]
  time needed to approach food, NIH paradigm: no effect

## CNC1(C)C2CCC(C2)C1(C)C (stereo not shown) [mecamylamine]
α4β2*-nAChR
  block of α4β2*-nAChR function: ~20%
